One data set concerns cells. The conditions noted are these: following the cells being exposed to the shuttle agent and cargo; cited from earlier work.
Data set [1] deals with HeLa cells. Put plainly: In vitro transduction of GFP-NLS cargo in HeLa cells (flow cytometry and fluorescence microscopy). The format is cell-based. The conditions noted are these: used at 10 μM; 10% human serum. On the procedure:
(§1) HeLa cells were plated (20 000 cells/well) in a 96 well-dish one day prior to transduction. Each delivery mix comprising a PEGylated shuttle agent (monomer or multimer) or a non-PEGylated shuttle agent at the indicated concentration(s) and 10 μM of a fluorescent cargo (e.g., GFP-NLS or DRI-NLS^647) was prepared in 50 μL with RPMI 1640 media completed with 10% human serum. Cells were washed once with PBS 1×, then incubated for 5 minutes with the prepared shuttle/cargo mix, PEGylated shuttle agent/cargo mix, and/or with the cargo alone as a negative control. After the incubation, 100 μL of DMEM containing 10% FBS was added to the mix and removed. […] Cells were then analyzed after a 1-hour incubation by fluorescence microscopy (Revolve, Echo: San Diego, CA, USA) and flow cytometry (Cytoflex™, Beckman Coulter: Indianapolis, IN, USA).
(§2) The signal intensity emitted by the fluorescent cargo and the percentage of cargo delivered cells was quantified by flow cytometry. Untreated cells were used to establish a baseline to quantify the increase in fluorescence that results from a successful internalization of the cargo in the presence of the shuttle agent in the treated cells. The percentage of cells with a fluorescence signal greater than the maximum fluorescence of untreated cells, “mean %” or “Pos cells (%)”, was used to identify positive fluorescent cells for determining transduction efficiency. […]
On the technique in general: In flow cytometry, cells or beads pass a laser one at a time.

The subject of data set [2] is HeLa cells. The data set is described as follows: In vitro transduction of DRI-NLS^647 cargo in HeLa cells (flow cytometry and fluorescence microscopy). The format is cell-based, Human. The conditions noted are these: used at 10 μM; cargo 10 μM. The protocol: as §1, §2
Data set [3] in a line: Cell viability / cytotoxicity in HeLa transduction assays (flow cytometry FSC/SSC). In kind it is cell-based. Conditions: human, HeLa cells. On the procedure: HeLa cells were plated (20 000 cells/well) in a 96 well-dish one day prior to transduction. Each delivery mix comprising a PEGylated shuttle agent (monomer or multimer) or a non-PEGylated shuttle agent at the indicated concentration(s) and 10 μM of a fluorescent cargo (e.g., GFP-NLS or DRI-NLS^647) was prepared in 50 μL with RPMI 1640 media completed with 10% human serum. Cells were washed once with PBS 1×, then incubated for 5 minutes with the prepared shuttle/cargo mix, PEGylated shuttle agent/cargo mix, and/or with the cargo alone as a negative control. After the incubation, 100 μL of DMEM containing 10% FBS was added to the mix and removed. Cells were washed once with PBS 1× and incubated in DMEM containing 10% FBS. Cells were then analyzed after a 1-hour incubation by fluorescence microscopy (Revolve, Echo: San Diego, CA, USA) and flow cytometry (Cytoflex™, Beckman Coulter: Indianapolis, IN, USA).
The signal intensity emitted by the fluorescent cargo and the percentage of cargo delivered cells was quantified by flow cytometry. Untreated cells were used to establish a baseline to quantify the increase in fluorescence that results from a successful internalization of the cargo in the presence of the shuttle agent in the treated cells. The percentage of cells with a fluorescence signal greater than the maximum fluorescence of untreated cells, “mean %” or “Pos cells (%)”, was used to identify positive fluorescent cells for determining transduction efficiency. The mean fluorescence intensity (Mean-FITC/APC) is the average of all fluorescence intensities of each cell with a fluorescent signal after delivery of fluorescent cargos. “Delivery scores” were calculated to provide a further indication of the total amount of cargo that was delivered per cell amongst all cargo-positive cells and was calculated by multiplying the mean fluorescence intensity (of at least duplicate samples) measured for the viable cargo-positive cells, by the mean percentage of viable cargo-positive cells, divided by 100,000. Finally, a “Delivery-Viability Score” was sometimes calculated for each peptide as the Mean viability multiplied by the Delivery Score multiplied by 10, enabling a ranking of the shuttle agents in terms of both their transduction activity and toxicity. Furthermore, the events detected by the cytometer and which correspond to the cells (size and granularity) were analyzed. Cellular toxicity (% cell viability) is obtained by comparing the size (FSC) and granularity (SSC) of each cell delivery condition to untreated cells. The delivery conditions of the cells also included the “cargo only” as a control.

The next data set in a line: in vitro. Conditions: human, cerebrospinal or other body fluid.

Like-named read-outs stand apart in the source and are kept apart here. Ends that are not written are not given here. Where only a bound is given, the exact number is not on record here.

With “His-CM18-PTD4: first generation shuttle agent (HHHHHHKWKLFKKIGAVLKVLTTGYARAAARQARA; His-CM18-PTD4)”, the “time to deliver GFP-NLS cargo to the cytosol” value in the data set with cells is 45 s.

As for “FSD10scr: negative control peptide, same amino acids of FSD10 rearranged in a scrambled order (KWKLARAFARAIKKLGGSGGGSYARALRRQARTG; FSD10 Scarmble)”, the “nuclear cargo transduction of GFP-NLS by microscopy” value in the data set on HeLa cells [1] is reported as “no significant transduction”. Also, the “nuclear cargo transduction of independent DRI-NLS^647 by microscopy” value in the data set with HeLa cells [2] is listed as “no significant transduction”.

“KWKLARAFARAIKKLGGSGGGSYARALRRQARTG [FSD10]” returned a viability at 5 min, 20 µM in data set [3] (shuttle agent at 20 μM, 10 μM GFP-NLS) of 55%. For the same compound, the viability at 5 min, 40 µM in data set [3] (shuttle agent at 40 μM, 10 μM GFP-NLS) came out at 6%. Moreover, the viability at 5 min in data set [3] (shuttle agent, 10 μM GFP-NLS, read-out: cell viabilities) was below 10%. Further, in the data set “in vitro”, the metabolised at 5 min was 40%.

Take `N=C(N)NCCC[C@H](NC(=O)[C@H](CCCNC(=N)N)NC(=O)[C@H](CCCNC(=N)N)NC(=O)[C@H](CCC(N)=O)NC(=O)[C@H](CCCNC(=N)N)NC(=O)[C@H](CCCNC(=N)N)NC(=O)[C@H](CCCCN)NC(=O)[C@H](CCCCN)NC(=O)[C@H](CCCNC(=N)N)NC(=O)CNC(=O)[C@@H](N)Cc1ccc(O)cc1)C(=O)O` [TAT]: the viability at 5 min in data set [3] (concentrations of 10 to 220 μM (data not shown), read-out: viabilities) was above 80%.

(Values after patent US20240197896A1, “SYNTHETIC PEPTIDE SHUTTLE AGENT BIOCONJUGATES FOR INTRACELLULAR CARGO DELIVERY” (FELDAN BIO INC., priority 2021, published 2024).)
